The results in this text go back to patent publication US12030904B2 (priority 2020, dated 2024).

The subject of series [1] is Recombinant Respiratory Syncytial virus strain A2 containing the firefly luciferase reporter (RSV-Fluc). The series can be described thus: microbe, parasite or virus in culture. Format: cell-based. The settings on record: human respiratory syncytial virus, NHBE, read-out: RSV EC50, Table 4.
The subject of another series is SARS-CoV-2. The series can be described thus: microbe, parasite or virus in culture. The settings on record: Severe acute respiratory syndrome coronavirus 2, read-out: SARS EC50. The format is cell-based.
Another series is described as follows: MT4 cytotoxicity (CC50). The settings on record: human, MT4 cells, MT4 CC50, Table 4.

What is called EC50 is the midpoint of the concentration-response curve. What is called CC50 is the concentration giving 50% cytotoxicity. A higher CC50 goes with better tolerance by the cells. As to `CCCCCCCCCCCCCCCCCCOC[C@H](COP(=O)(O)OC[C@H]1O[C@@](C#N)(c2ccc3c(N)ncnn23)[C@H](O)[C@@H]1O)OCc1ccc2ccccc2n1` [Example 92, ((2R,3S,4R,5R)-5-(4-aminopyrrolo[2,1-f][1,2,4]triazin-7-yl)-5-cyano-3,4-dihydroxytetrahydrofuran-2-yl)methyl ((R)-3-(octadecyloxy)-2-(quinolin-2-ylmethoxy)propyl) hydrogen phosphate], the EC50 in series [1] turned out to be 38 nM; in the series on SARS-CoV-2, 120 nM. Further, in the series “MT4 cytotoxicity (CC50)”, half-maximal cytotoxicity (CC50) was put at 1760 nM.
For `CCCCCCCCCCCCCCCCCCOC[C@@H](COP(=O)(O)OC[C@H]1O[C@@](C#N)(c2ccc3c(N)ncnn23)[C@H](O)[C@@H]1O)OCc1cc(F)cc(C#N)c1` [Example 93, ((2R,3S,4R,5R)-5-(4-aminopyrrolo[2,1-f][1,2,4]triazin-7-yl)-5-cyano-3,4-dihydroxytetrahydrofuran-2-yl)methyl ((S)-2-((3-cyano-5-fluorobenzyl)oxy)-3-(octadecyloxy)propyl) hydrogen phosphate], in that order: 79 nM, 450 nM and 1730 nM.
For the compound `CCCCCCCCCCCCCCCCCOC[C@H](COP(=O)(O)OC[C@H]1O[C@@](C#N)(c2ccc3c(N)ncnn23)[C@H](O)[C@@H]1O)OCc1ccc(C#N)c(F)c1` [Example 94, ((2R,3S,4R,5R)-5-(4-aminopyrrolo[2,1-f][1,2,4]triazin-7-yl)-5-cyano-3,4-dihydroxytetrahydrofuran-2-yl)methyl ((R)-2-((4-cyano-3-fluorobenzyl)oxy)-3-(heptadecyloxy)propyl) hydrogen phosphate], the EC50 (in series [1]; in the series with SARS-CoV-2) was 38 nM throughout. In “MT4 cytotoxicity (CC50)”, this compound had a CC50 of 273 nM.
On to `CCCCCCCCCCCCCCCCOC[C@H](COP(=O)(O)OC[C@H]1O[C@@](C#N)(c2ccc3c(N)ncnn23)[C@H](O)[C@@H]1O)OCc1cccc(C#N)c1` [Example 95, ((2R,3S,4R,5R)-5-(4-aminopyrrolo[2,1-f][1,2,4]triazin-7-yl)-5-cyano-3,4-dihydroxytetrahydrofuran-2-yl)methyl ((R)-2-((3-cyanobenzyl)oxy)-3-(hexadecyloxy)propyl) hydrogen phosphate], for which the EC50 in series [1] was 20 nM; in the series on SARS-CoV-2, 37 nM. In the series “MT4 cytotoxicity (CC50)”, this compound yielded a CC50 of 252 nM.
For `CCCCCCCCCCCCCCCCOC[C@H](COP(=O)(O)OC[C@H]1O[C@@](C#N)(c2ccc3c(N)ncnn23)[C@H](O)[C@@H]1O)OCc1ccc(C#N)cc1` [Example 96, ((2R,3S,4R,5R)-5-(4-aminopyrrolo[2,1-f][1,2,4]triazin-7-yl)-5-cyano-3,4-dihydroxytetrahydrofuran-2-yl)methyl ((R)-2-((4-cyanobenzyl)oxy)-3-(hexadecyloxy)propyl) hydrogen phosphate], in that order: 23 nM, 43 nM and 511 nM.
In the same order, the values of `CCCCCCCCCCCCCCCCOC[C@H](COP(=O)(O)OC[C@H]1O[C@@](C#N)(c2ccc3c(N)ncnn23)[C@H](O)[C@@H]1O)OCc1ccc(OC)cc1` [Example 97, ((2R,3S,4R,5R)-5-(4-aminopyrrolo[2,1-f][1,2,4]triazin-7-yl)-5-cyano-3,4-dihydroxytetrahydrofuran-2-yl)methyl ((R)-3-(hexadecyloxy)-2-((4-methoxybenzyl)oxy)propyl) hydrogen phosphate] are 40 nM, 99 nM and 652 nM.
Turning to `CCCCCCCCCCCCCCCCCCOC[C@H](COP(=O)(O)OC[C@H]1O[C@@](C#N)(c2ccc3c(N)ncnn23)[C@H](O)[C@@H]1O)OCc1ccc(F)c(C#N)c1` [Example 98, [(2R,3S,4R,5R)-5-(4-aminopyrrolo[2,1-f][1,2,4]triazin-7-yl)-5-cyano-3,4-dihydroxy-tetrahydrofuran-2-yl]methyl [(2R)-2-[(3-cyano-4-fluoro-phenyl)methoxy]-3-octadecoxy-propyl] hydrogen phosphate], the EC50 in series [1] amounted to 1000 nM; in the series on SARS-CoV-2, 1300 nM. Half-maximal cytotoxicity in “MT4 cytotoxicity (CC50)” (CC50) was put at 8980 nM.
On to `CCCCCCCCCCCCCCCCCCOC[C@H](COP(=O)(O)OC[C@H]1O[C@@](C#N)(c2ccc3c(N)ncnn23)[C@H](O)[C@@H]1O)Oc1cccc(C#N)n1` [Example 100, [(2R,3S,4R,5R)-5-(4-aminopyrrolo[2,1-f][1,2,4]triazin-7-yl)-5-cyano-3,4-dihydroxy-tetrahydrofuran-2-yl]methyl [(2R)-2-[(6-cyano-2-pyridyl)oxy]-3-octadecoxy-propyl]hydrogen phosphate], for which the figures for the EC50 (in series [1]; with SARS-CoV-2) were 58 nM and 340 nM, respectively. The same compound displayed a CC50 in the series “MT4 cytotoxicity (CC50)” of 1180 nM.
For `CCCCCCCCCCCCCCOC[C@H](COP(=O)(O)OC[C@H]1O[C@@](C#N)(c2ccc3c(N)ncnn23)[C@H](O)[C@@H]1O)OCc1ccc(C#N)cc1F` [Example 101, [(2R,3S,4R,5R)-5-(4-aminopyrrolo[2,1-f][1,2,4]triazin-7-yl)-5-cyano-3,4-dihydroxy-tetrahydrofuran-2-yl]methyl [(2R)-2-[(4-cyano-2-fluoro-phenyl)methoxy]-3-tetradecoxy-propyl] hydrogen phosphate], in that order: 20 nM, 130 nM and 5110 nM.
For `CCCCCCCCCCCCCCCOC[C@H](COP(=O)(O)OC[C@H]1O[C@@](C#N)(c2ccc3c(N)ncnn23)[C@H](O)[C@@H]1O)OCc1ccc(C#N)cc1F` [Example 102, [(2R,3S,4R,5R)-5-(4-aminopyrrolo[2,1-f][1,2,4]triazin-7-yl)-5-cyano-3,4-dihydroxy-tetrahydrofuran-2-yl]methyl [(2R)-2-[(4-cyano-2-fluoro-phenyl)methoxy]-3-pentadecoxy-propyl] hydrogen phosphate], in that order: 21 nM, 120 nM and 4500 nM.
With `CCCCCCCCCCCCCCCCCCOC[C@H](COP(=O)(O)OC[C@H]1O[C@@](C#N)(c2ccc3c(N)ncnn23)[C@H](O)[C@@H]1O)OCc1ccc(C#N)cc1Cl` [Example 103, [(2R,3S,4R,5R)-5-(4-Aminopyrrolo[2,1-f][1,2,4]triazin-7-yl)-5-cyano-3,4-dihydroxy-tetrahydrofuran-2-yl]methyl [(2R)-2-[(2-chloro-4-cyano-phenyl)methoxy]-3-octadecoxy-propyl] hydrogen phosphate], the EC50 amounted to 387 nM in series [1] and 10000 nM in the series on SARS-CoV-2. Also, the CC50 in “MT4 cytotoxicity (CC50)” was determined as 50000 nM.
In the same order, the values of `CCCCCCCCCCCCCCCCCCOC[C@H](COP(=O)(O)OC[C@H]1O[C@@](C#N)(c2ccc3c(N)ncnn23)[C@H](O)[C@@H]1O)OCc1cc(C#N)ccc1OC` [Example 104, [(2R,3S,4R,5R)-5-(4-Aminopyrrolo[2,1-f][1,2,4]triazin-7-yl)-5-cyano-3,4-dihydroxy-tetrahydrofuran-2-yl]methyl [(2R)-2-[(5-cyano-2-methoxy-phenyl)methoxy]-3-octadecoxy-propyl] hydrogen phosphate] are 222 nM, 1300 nM and 2550 nM.
For `CCCCCCCCCCCCCCCCCCOC[C@H](COP(=O)(O)OC[C@H]1O[C@@](C#N)(c2ccc3c(N)ncnn23)[C@H](O)[C@@H]1O)OCc1ccc(C#N)cc1C(F)(F)F` [Example 105, [(2R,3S,4R,5R)-5-(4-Aminopyrrolo[2,1-f][1,2,4]triazin-7-yl)-5-cyano-3,4-dihydroxy-tetrahydrofuran-2-yl]methyl [(2R)-2-[[4-cyano-2-(trifluoromethyl)phenyl]methoxy]-3-octadecoxy-propyl] hydrogen phosphate], in that order: 553 nM, 10000 nM and 20100 nM.
For the compound `CCCCCCCCCCCCCCCCCCOC[C@H](COP(=O)(O)OC[C@H]1O[C@@](C#N)(c2ccc3c(N)ncnn23)[C@H](O)[C@@H]1O)OCc1cc(C#N)cc(OC)c1` [Example 106, [(2R,3S,4R,5R)-5-(4-Aminopyrrolo[2,1-f][1,2,4]triazin-7-yl)-5-cyano-3,4-dihydroxy-tetrahydrofuran-2-yl]methyl [(2R)-2-[(3-cyano-5-methoxy-phenyl)methoxy]-3-octadecoxy-propyl] hydrogen phosphate], the EC50 in series [1] worked out at 88 nM; in the series with SARS-CoV-2 it was 10000 nM. The CC50 in “MT4 cytotoxicity (CC50)” turned out to be 871 nM.
In the same order, the values of `CCCCCCCCCCCCCCCCCCOC[C@H](COP(=O)(O)OC[C@H]1O[C@@](C#N)(c2ccc3c(N)ncnn23)[C@H](O)[C@@H]1O)OCc1cccc(C#N)n1` [Example 107, [(2R,3S,4R,5R)-5-(4-Aminopyrrolo[2,1-f][1,2,4]triazin-7-yl)-5-cyano-3,4-dihydroxy-tetrahydrofuran-2-yl]methyl [(2R)-2-[(6-cyano-2-pyridyl)methoxy]-3-octadecoxy-propyl] hydrogen phosphate] are 80 nM, 370 nM and 885 nM.
In the same order, the values of `CCCCCCCCCCCCCCCCCCOC[C@H](COP(=O)(O)OC[C@H]1O[C@@](C#N)(c2ccc3c(N)ncnn23)[C@H](O)[C@@H]1O)OCc1ccc(Cl)c(C#N)c1` [Example 108, [(2R,3S,4R,5R)-5-(4-aminopyrrolo[2,1-f][1,2,4]triazin-7-yl)-5-cyano-3,4-dihydroxy-tetrahydrofuran-2-yl]methyl [(2R)-2-[(4-chloro-3-cyano-phenyl)methoxy]-3-octadecoxy-propyl] hydrogen phosphate] are 83 nM, 220 nM and 713 nM.
For `CCCCCCCCCCCCCCCCCOCC[C@H](COP(=O)(O)OC[C@H]1O[C@@](C#N)(c2ccc3c(N)ncnn23)[C@H](O)[C@@H]1O)OCc1ccc(C#N)cc1` [Example 111, [(2R,3S,4R,5R)-5-(4-Aminopyrrolo[2,1-f][1,2,4]triazin-7-yl)-5-cyano-3,4-dihydroxy-tetrahydrofuran-2-yl]methyl [(2R)-2-[(4-cyanophenyl)methoxy]-4-heptadecoxy-butyl] hydrogen phosphate], in that order: 499 nM, 3500 nM and 18900 nM.
